Reference: the supplement of paper PMC10307832

Experiments:
Experiment in all cases: relative viability (nuclei count vs DMSO), 5 days (fraction); higher = more cells survive
[1] = compound: CC(C)=CC[C@@H](O)C1=CC(=O)c2c(O)ccc(O)c2C1=O [Shikonin]
Outline: (§1)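 Viability was read as treated-well nuclei divided by vehicle-well nuclei, using the median across plates. Lung cancer cell lines in 1536-well plates were kept overnight at 37 °C, pinned with five √10-spaced library-drug doses, and after 5 days were Hoechst-stained, imaged at 4× and counted in MetaXpress. Plates passed only with control CV below 25% and at least one doubling.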

[2] = compound: CC(C)N(CCCNC(=O)Nc1ccc(C(C)(C)C)cc1)C[C@H]1O[C@@H](n2ccc3c(N)ncnc32)[C@H](O)[C@@H]1O
Outline: as §1

[3] = compound: CC(C)=CC[C@@H](O)C1=CC(=O)c2c(O)ccc(O)c2C1=O [Shikonin] + CC1(C)CCC(c2ccc(Cl)cc2)=C(CN2CCN(c3ccc(C(=O)NS(=O)(=O)c4ccc(N[C@H](CCN5CCOCC5)CSc5ccccc5)c(S(=O)(=O)C(F)(F)F)c4)cc3)CC2)C1 [Navitoclax] (partner 0.5 µM)
Outline: (§2)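 A single step with final 0.05% Triton X-100, 1% formaldehyde and 1 ug/ml Hoechst fixed the cells and stained nuclei 5 days after treatment. Lung cancer cell lines in 1536-well plates had been treated by pin tool the day after seeding with one drug alone or a fixed anchor-drug dose plus five library-drug doses (not always all listed) in √10 steps, and nuclei were counted on 4× images. Relative viability is the ratio of nuclei in treated wells to nuclei in vehicle wells, taken as the median of duplicate plates.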

[4] = compound: CC(C)N(CCCNC(=O)Nc1ccc(C(C)(C)C)cc1)C[C@H]1O[C@@H](n2ccc3c(N)ncnc32)[C@H](O)[C@@H]1O + N=C(N)NC(=N)NCCc1ccccc1 [Phenformin] (partner 250 µM)
Outline: as §2

Cell Line	relative viability ([1]; 0.01 µM)	relative viability ([1]; 0.1 µM)	relative viability ([1]; 0.3162 µM)	relative viability ([1]; 1 µM)	relative viability ([2]; 0.08 µM)	relative viability ([2]; 0.253 µM)	relative viability ([2]; 0.8 µM)	relative viability ([2]; 2.53 µM)	relative viability ([2]; 8 µM)	relative viability ([3]; first compound 0.01 µM)	relative viability ([3]; first compound 0.1 µM)	relative viability ([3]; first compound 0.3162 µM)	relative viability ([3]; first compound 1 µM)	relative viability ([4]; first compound 0.08 µM)	relative viability ([4]; first compound 0.253 µM)	relative viability ([4]; first compound 0.8 µM)	relative viability ([4]; first compound 2.53 µM)	relative viability ([4]; first compound 8 µM)
HCC-44	1	1.05	1.03	1.09	0.989	1.04	0.789	0.976	0.93	1.04	0.909	1.1	1.07	0.142	0.155	0.232	0.219	0.125
H3255	0.978	1.06	1.05	1.02	0.876	0.929	0.919	0.933	0.893	0.454	0.695	0.519	0.584	0.375	0.365	0.371	0.416	0.372
NCI-H2085	0.992	1.05	0.985	0.983	0.93	0.905	1.03	1.02	0.983	1.08	1.09	1.13	0.664	0.693	0.592	0.816	0.789	0.631
NCI-H2347	0.971	1.07	1.06	0.984	1.02	0.963	0.935	1.06	0.955	0.775	0.73	0.781	0.798	0.536	0.404	0.369	0.488	0.254
NCI-H1944	0.993	1.06	1.12	0.986	0.979	0.878	0.762	0.976	0.936	0.988	1.1	1.08	1.14	0.223	0.195	0.199	0.188	0.198
NCI-H1793	0.926	1.1	0.85	0.936	0.865	–	0.861	0.891	0.854	0.43	0.379	0.407	0.76	0.396	–	0.336	0.371	0.316
NCI-H647	1.07	1.08	1.08	0.9	0.912	0.831	0.812	0.955	0.864	0.991	0.886	1.25	1.02	0.469	0.559	–	0.478	0.568
A549	1.02	0.956	1.07	0.997	0.93	0.877	1.02	0.94	0.933	1.46	1.49	1.35	1.17	0.183	0.142	0.164	0.152	0.105
NCI-H596	0.935	0.962	1.04	1.08	0.976	0.795	0.962	1.11	1.09	0.936	0.911	0.968	0.907	0.819	–	0.626	0.781	0.713
EKVX	1	0.963	1.08	0.964	1	0.934	0.932	1	0.862	0.828	0.897	1.21	0.903	0.229	0.241	0.223	0.228	0.202
EPLC-272H	0.906	0.974	1.06	1.09	0.907	0.883	0.968	0.936	0.859	1.17	1.07	1.27	1.14	0.286	0.271	0.32	0.296	0.298
NCI-H1395	0.899	0.987	0.846	0.987	0.838	0.782	0.646	0.933	0.799	1.18	1.16	1.14	1.09	0.433	0.436	0.43	0.438	0.424
NCI-H2228	1.07	0.991	1.12	1.17	0.925	1	0.903	0.949	1.09	0.799	0.846	0.911	0.895	0.403	0.297	0.298	0.274	0.231
LXF-289	1.08	0.999	1.08	0.992	0.97	1.03	0.923	1.03	0.95	1.01	0.873	0.96	0.967	0.518	0.556	0.541	0.539	0.478
NCI-H2023	1.05	1.17	1.19	0.972	0.955	0.864	0.977	0.931	0.846	1.03	1.06	1.03	0.97	0.41	0.427	0.445	0.405	0.353
NCI-H3122	1.03	1.07	1.07	1.04	0.978	0.98	0.965	0.954	0.993	1.03	1.09	1.05	1.09	0.39	0.384	0.367	0.366	0.358
NCI-H1755	1.03	1.01	1.12	1	1.01	0.944	0.856	0.926	0.913	1.04	0.988	1.14	1.07	0.62	0.609	0.614	0.632	0.554
HCC-78	0.942	1.14	1.04	1.15	1.05	0.787	0.942	0.875	1	0.718	0.964	0.942	0.841	0.804	0.611	0.682	0.641	0.717
